Measurements: patent publication US5677342A, “Phenoxy acetic acids as aldose reductase inhibitors and antihyperglycemic agents” (American Home Products Corporation, priority 1996, dated 1997)
Each block holds one compound with its values, some of them ahead of it.

Key:
[1] = biological target: T1, bovine lens aldose reductase (Bos taurus, UniProt P16116); assay: In vitro Inhibition of Aldose Reductase in the Bovine Lens; assay type: biochemical; conditions: DL-glyceraldehyde as substrate; for inhibition at 0.04 µM: dose 4 × 10^-8 M; for inhibition at 0.1 µM: dose 10^-7 M
T1 construct: preparation of the enzyme from bovine lens; from tissue; host or cells: bovine lens
Procedure: I. In vitro Inhibition of Aldose Reductase in the Bovine Lens
The aldose reductase inhibiting effects of the compounds of formula I were tested by employing an in vitro testing procedure similar to that described by S. Hayman and J. H. Kinoshita, J. Biol. Chem., 240, 877 (1965) wherein the abilitty of the invention compounds to inhibit bovine lens aldose reductase with DL-glyceraldehyde as the substrate was determined. In the present case the procedure of Hayman and Kinoshita was modified in that the final chromatography step was omitted in the preparation of the enzyme from bovine lens.

diabetic db/db mice = assay: Determination of Blood Glucose Lowering in Diabetic db/db Mice; assay type: in vivo, male diabetic db/db (C57BL/KsJ) mice; conditions: p.o.; for plasma glucose lowering compared with ciglitazone / % Change glucose: 100 mg/kg; for plasma glucose lowering compared with ciglitazone: in words; for % Change glucose: plasma glucose Day 4 (mean of 2 and 4 hr samples) vs Day 1 baseline
Procedure: 2. Determination of Blood Glucose Lowering in Diabetic db/db Mice. On the morning of Day 1, 35 mice [male diabetic db/db (C57BL/KsJ) mice (Jackson Laboratories), 2-7 months of age and 50-70 g] were fasted for 4 hours, weighed and a baseline blood sample (15-30 μl) was collected from the tail-tip of each mouse without anesthesia, and placed directly into a fluoride-containing tube, mixed and maintained on ice. Food was then returned to the mice. The plasma was separated and levels of glucose in plasma determined by the Abbott VP Analyzer. Because of the variable plasma glucose levels of the db/db mice, 5 mice having the most extreme (i.e., highest or lowest) plasma glucose levels were excluded and the remaining 30 mice were randomly assigned into 7 groups of equivalent mean plasma glucose levels (N=6 for vehicle and N=4 for each drug group). On the afternoon of Days 1, 2 and 3, the vehicle, control or test drugs were administered (p.o.) to the ad libitum fed mice. On the morning of Day 4, the mice were weighed and food removed, but water was available ad libitum. Three hours later, a blood sample was collected and then the mice were given the fourth administration of drug or vehicle. Blood samples were collected again from the unanesthetized mice at 2 and 4 hours after drug administration. The plasma was separated and levels of glucose in plasma was determined by the Abbott VP Analyzer. For each mouse, the percent change of its plasma glucose level on Day 4 (mean of the 2 and 4 hr samples) from respective level before drug administration (Day 1 baseline sample) is determined as follows: [formula] Analysis of variance followed by Dunnett's multiple comparison (one-sided) will be used to estimate the 'degree of statistical significance of the difference between the vehicle control group and the individual drug-treated groups. A drug will be considered active, at the specific dosage administered, if the difference of the plasma glucose level has a p<0.05.

ob/ob mice = assay: Determination of Blood Glucose Lowering Effect in ob/ob mice; assay type: in vivo, ob/ob mice (C57B1/6J); conditions: 100 mg/kg, p.o.
Procedure: 3. Determination of Blood Glucose Lowering Effect in ob/ob mice
Male or female ob/ob mice (C57B1/6J), ages 2 to 5 months (10 to 65 g), of a similar age are randomized according to plasma glucose into 4 groups of 10 mice. The mice are housed 5 per cage and are maintained on normal rodent chow with water ad libitum. The mice receive test compound daily. The test compound is suspended in 0.5 mL of 0.5% methyl cellulose and is administered by gavage (dissolved in drinking water) or admixed in the diet. The dose of compound given ranges from 2.5 to 200 mg/kg/day. Body weight of fed animals is measured at the beginning of each week and doses for the entire week are calculated using this weight and are expressed in terms of the active moiety of the compound. Control mice receive vehicle only.
On the morning of Days 4, 7 or 14 two drops of blood (approximately 50 μl) are collected into sodium fluoride containing tubes either from the tail vein or after decapitation. […] The plasma is isolated by centrifugation and the concentration of glucose is measured enzymatically on an Abbott V. P. Analyzer and the plasma concentration of insulin is determined by radioimmunoassay (Heding, 1972). For each mouse, the percentage change in plasma glucose on Day 4, 7 or 14 is calculated relative to the mean plasma glucose of the vehicle treated mice. […]

inhibition at 0.04 µM [1]: 84%
Compound: O=Cc1ccc(OCC(=O)O)c(Cc2ccc3c(Br)cccc3c2)c1O [Example 5, [2-(5-bromo-naphthalen-2-ylmethyl)-4-formyl-3-hydroxy-phenoxy]-acetic acid]

inhibition at 0.1 µM [1]: 36%
Compound: O=Cc1cc(Cl)c(OCC(=O)O)c(Cc2ccc3c(Cl)cccc3c2)c1O [Example 10, [6-chloro-2-(5-chloro-naphthalen-2-ylmethyl)-4-formyl-3-hydroxy-phenoxy]-acetic acid]

inhibition at 1 µM ([1]; dose 10^-6 M): 53%
Compound: O=Cc1ccc(OCC(=O)O)c(Cc2cccc3ccccc23)c1O [Example 3, (4-formyl-3-hydroxy-2-naphthalen-1-ylmethyl-phenoxy)-acetic acid]

inhibition at 0.04 µM [1]: 81%
Compound: COc1cc(OCC(=O)O)c(Cc2ccc3c(Cl)cccc3c2)c(O)c1C=O [Example 8, [2-(5-chloro-naphthalen-2-ylmethyl)-4-formyl-3-hydroxy-5-methoxy-phenoxy]-acetic acid]

inhibition at 0.04 µM [1]: 49%
Compound: Cc1c(Cl)c(OCC(=O)O)c(Cc2ccc3c(Cl)cccc3c2)c(O)c1C=O [Example 1, [2-chloro-6-(5-chloro-naphthalen-2-ylmethyl)-4-formyl-5-hydroxy-3-methyl-phenoxy]-acetic acid]
plasma glucose lowering compared with ciglitazone (diabetic db/db mice): comparable with the results for ciglitazone | % Change glucose (diabetic db/db mice): -19% | % Change glucose (ob/ob mice; plasma glucose on Day 4, 7 or 14 relative to vehicle mean): -24% | % Change insulin (ob/ob mice; plasma insulin by radioimmunoassay, Day 4, 7 or 14): -38%

inhibition at 0.04 µM [1]: 78%
Compound: O=Cc1ccc(OCC(=O)O)c(Cc2ccc3ccccc3c2Br)c1O [Example 6, [2-(1-bromo-naphthalen-2-ylmethyl)-4-formyl-3-hydroxy-phenoxy]-acetic acid]

inhibition at 0.1 µM [1]: 34%
Compound: O=Cc1ccc(OCC(=O)O)c(Cc2ccc3ccccc3c2)c1O [Example 2, (4-formyl-3-hydroxy-2-naphthalen-2-ylmethyl-phenoxy)-acetic acid]
plasma glucose lowering compared with ciglitazone (diabetic db/db mice): comparable with the results for ciglitazone | % Change glucose (diabetic db/db mice): -23%

inhibition at 0.04 µM [1]: 83%
Compound: COc1c(C=O)ccc(OCC(=O)O)c1Cc1ccc2c(Cl)cccc2c1 [Example 7, [2-(5-chloro-naphthalen-2-ylmethyl)-4-formyl-3-methoxy-phenoxy]-acetic acid]

Compound: CC1(COc2ccc(CC3SC(=O)NC3=O)cc2)CCCCC1 (stereo not drawn) [ciglitazone, reference compound]
decrease in plasma glucose levels (average) (diabetic db/db mice; positive control, 100 mg/kg/day × 4 days, average): 26% | decrease in plasma glucose levels (diabetic db/db mice; positive control, 100 mg/kg/day × 4 days, range): 18 to 34%

inhibition at 0.04 µM [1]: 78%
Compound: O=Cc1ccc(OCC(=O)O)c(Cc2ccc3c(Cl)cccc3c2)c1O [Example 4, [2-(5-chloro-naphthalen-2-ylmethyl)-4-formyl-3-hydroxy-phenoxy]-acetic acid]

inhibition at 0.04 µM [1]: 89%
Compound: Cc1cc(OCC(=O)O)c(Cc2ccc3c(Cl)cccc3c2)c(O)c1C=O [Example 9, [2-(5-chloro-naphthalen-2-ylmethyl)-4-formyl-3-hydroxy-5-methyl-phenoxy]-acetic acid]
